These results are taken from ChEMBL document CHEMBL4354855 (J Med Chem, 2020).

The nature of series [1]: Half life in human plasma. Type of series: ADME, cell-free.
Series [2] is described as follows: Oral bioavailability in OFA-1 rat at 10 mg/kg. Type of series: ADME, organism-based. The following applies: in vivo.
Series [3] can be described thus: Intrinsic clearance in rat liver microsomes. Type of series: ADME, Microsome. The following applies: read-out: CLH.
A short description of series [4]: Stability of the compound in GSH assessed as parent compound remaining measured after 24 hrs. Type of series: physicochemical. As to conditions: GSH (glutathione); read-out: Stability.
Series [5] can be described thus: Clearance in OFA-1 rat at 3 mg/kg, po. Type of series: ADME, organism-based. As to conditions: in vivo.
Series [6] can be described thus: Drug level in OFA-1 rat blood at 3 mg/kg, po measured after 5 hrs. Type of series: ADME, organism-based. As to conditions: whole blood, read-out: Drug uptake.
Series [7] is described as follows: Drug level in OFA-1 rat blood at 10 mg/kg, po measured after 5 hrs. As to conditions: whole blood, read-out: Drug uptake. Type of series: ADME, organism-based.
Series [8] in a line: Lipophilicity, log P of the compound. Type of series: physicochemical. As to conditions: octanol/water.
The nature of series [9]: Intrinsic clearance in dog liver microsomes. It counts as ADME, Canis lupus familiaris, Microsome. As to conditions: read-out: CLH.
The nature of series [10]: Clearance in Beagle dog at 1 mg/kg, iv or 3 mg/kg, po. Type of series: ADME, organism-based, Canis lupus familiaris. The following applies: in vivo.
Series [11] in a line: Volume of distribution at steady state in Lewis rat at 1 mg/kg, iv or 3 mg/kg, po. It counts as ADME, organism-based. The following applies: in vivo, read-out: Vdss.
A short description of series [12]: Tmax in Beagle dog at 1 mg/kg, iv or 3 mg/kg, po. The following applies: in vivo. It counts as ADME, organism-based, Canis lupus familiaris.
The nature of series [13]: Thermodynamic solubility of the compound at pH 6.8. The following applies: buffer, read-out: Therm_solubility. It counts as physicochemical.
Series [14] is described as follows: Dose normalized AUC in C57BL/6 mouse at 3 mg/kg, po. Type of series: ADME, organism-based. As to conditions: in vivo.
The nature of series [15]: Dose normalized AUC in Lewis rat at 3 mg/kg, po. It counts as ADME, organism-based. The following applies: in vivo.
A short description of series [16]: Half life in Lewis rat at 1 mg/kg, iv or 3 mg/kg, po. Type of series: ADME, organism-based. The following applies: in vivo.
Series [17] in a line: Oral bioavailability in Beagle dog at 3 mg/kg. Type of series: ADME, organism-based, Canis lupus familiaris. The following applies: in vivo.
Series [18] is described as follows: Clearance in Lewis rat at 1 mg/kg, iv or 3 mg/kg, po. The following applies: in vivo. Type of series: ADME, organism-based.
A short description of series [19]: Oral bioavailability in Lewis rat at 3 mg/kg. It counts as ADME, organism-based. As to conditions: in vivo.
Series [20] in a line: Oral bioavailability in C57BL/6 mouse at 3 mg/kg. It counts as ADME, organism-based. As to conditions: in vivo.
A short description of series [21]: Half life in Beagle dog at 1 mg/kg, iv or 3 mg/kg, po. It counts as ADME, organism-based, Canis lupus familiaris. The following applies: in vivo.
Series [22] can be described thus: Dose normalized Cmax in Lewis rat at 1 mg/kg, iv or 3 mg/kg, po. The following applies: in vivo. It counts as ADME, organism-based.
Series [23] in a line: Intrinsic clearance in mouse liver microsomes. Type of series: ADME, Microsome. The following applies: read-out: CLH.
Series [24] can be described thus: Drug level in OFA-1 rat at 1 mg/kg, po measured after 0.5 hrs. It counts as ADME, organism-based. As to conditions: in vivo, read-out: Drug uptake.
Series [25] is described as follows: Clearance in C57BL/6 mouse at 1 mg/kg, iv or 3 mg/kg, po. It counts as ADME, organism-based. As to conditions: in vivo.
A short description of series [26]: Dose normalized Cmax in Beagle dog at 1 mg/kg, iv or 3 mg/kg, po. It counts as ADME, organism-based, Canis lupus familiaris. The following applies: in vivo.
Series [27] in a line: Tmax in Lewis rat at 1 mg/kg, iv or 3 mg/kg, po. It counts as ADME, organism-based. As to conditions: in vivo.
Series [28] can be described thus: Dose normalized AUC in Beagle dog at 3 mg/kg, po. It counts as ADME, organism-based, Canis lupus familiaris. As to conditions: in vivo.
Series [29] in a line: Dose normalized Cmax in C57BL/6 mouse at 1 mg/kg, iv or 3 mg/kg, po. It counts as ADME, organism-based. The following applies: in vivo.
The nature of series [30]: Volume of distribution at steady state in C57BL/6 mouse at 1 mg/kg, iv or 3 mg/kg, po. It counts as ADME, organism-based. As to conditions: in vivo, read-out: Vdss.
Series [31] can be described thus: Volume of distribution at steady state in Beagle dog at 1 mg/kg, iv or 3 mg/kg, po. The following applies: in vivo, read-out: Vdss. Type of series: ADME, organism-based, Canis lupus familiaris.
Series [32] in a line: Half life in C57BL/6 mouse at 1 mg/kg, iv or 3 mg/kg, po. Type of series: ADME, organism-based. The following applies: in vivo.
A short description of series [33]: Drug level in OFA-1 rat at 1 mg/kg, po measured after 5 hrs. The following applies: in vivo, read-out: Drug uptake. It counts as ADME, organism-based.
Series [34] can be described thus: Tmax in C57BL/6 mouse at 1 mg/kg, iv or 3 mg/kg, po. It counts as ADME, organism-based. As to conditions: in vivo.
A short description of series [35]: Thermodynamic solubility of the compound at pH 1. Type of series: physicochemical. The following applies: buffer, read-out: Therm_solubility.

A value given as a limit tells only on which side of the number the result lay.

With `C=CC(=O)N1CCC[C@H]1COc1c(N)ncnc1-c1cc(F)cc(NC(=O)c2ccc(C3CC3)cc2F)c1C`, the half-life in [1] was over 120 min.
Same read-out and setting: as for `C=CC(=O)N1CC[C@H]1COc1c(N)ncnc1-c1cc(F)cc(NC(=O)c2ccc(C3CC3)cc2F)c1C`, the figure is 42 min.
In turn, `C=CC(=O)N1CC(Oc2c(N)ncnc2-c2cc(F)cc(NC(=O)c3ccc(C4CC4)cc3F)c2C)C1` registered a bioavailability in series [2] of 51%. In [1], this molecule came in with a half-life of 35 min.
With `C=CC(=O)N(C)CC/C=C/c1c(N)ncnc1-c1cc(F)cc(NC(=O)c2ccc(C3CC3)cc2)c1C`, in series [3], the microsomal CLint came out at 815 µL/min/mg.
In the case of `Cc1c(NC(=O)c2ccc(C3CC3)cc2F)cc(F)cc1-c1ncnc(N)c1OCCN(C)C(=O)/C=C/CN(C)C`, the remaining at 24 h in series [4] was determined as 60.8%.
With `C/C=C/C(=O)N(C)CCOc1c(N)ncnc1-c1cc(F)cc(NC(=O)c2ccc(C3CC3)cc2F)c1C`, the remaining at 24 h in series [4] was found to be 95.8%.
`C=CC(=O)N(C)C/C=C/c1c(N)ncnc1-c1cc(F)cc(NC(=O)c2ccc(C3CC3)cc2F)c1C` gave a CL/F in series [5] of 307 mL/min/kg. Moreover, the half-life in series [1] was over 120 min.
For `CC#CC(=O)N(C)CCOc1c(N)ncnc1-c1cc(F)cc(NC(=O)c2ccc(C3CC3)cc2F)c1C`, the remaining at 24 h in series [4] was determined as 79.6%.
With `C=CC(=O)N(C)C/C=C/c1c(N)ncnc1-c1cc(F)cc(NC(=O)c2ccc(C3CC3)cc2)c1C`, the microsomal CLint in series [3] was determined as 924 µL/min/mg.
As to `C=CC(=O)N1CCC(Oc2c(N)ncnc2-c2cc(F)cc(NC(=O)c3ccc(C4CC4)cc3F)c2C)CC1`, the concentration at 5 h in series [6] amounted to 207 nM. The molecule further gave a half-life in [1] of over 120 min.
Take `C=CC(=O)N1CC(Oc2c(N)ncnc2-c2cc(F)cc(NC(=O)c3ccc(C4CC4)cc3)c2C)C1`: the microsomal CLint in series [3] stood at 25 µL/min/mg. Moreover, the bioavailability in series [2] was determined as 5%. In addition, the concentration at 5 h in series [7] amounted to 13 nM.
In [8], `C=CC(=O)N(CC)CCOc1c(N)ncnc1-c1cc(F)cc(NC(=O)c2ccc(C3CC3)cc2F)c1C` had a logP of 3.6. Further, the half-life in [1] is over 120 min.
Consider `C=CC(=O)N(C)CCOc1c(N)ncnc1-c1cc(F)cc(NC(=O)c2ccc(C3CC3)cc2F)c1C` [REMIBRUTINIB], for which the results for the microsomal CLint in series [9], in [3] and in [23] were 146 µL/min/mg, 33 µL/min/mg and 325 µL/min/mg, respectively. The remaining at 24 h in series [4] was determined as 68.5%. In addition, the logP in series [8] was 2.9. For the same molecule, the clearance in series [10] was found to be 29 mL/min/kg; in series [18] it was 44 mL/min/kg; in series [25] it was 97 mL/min/kg. In addition, the Vd in series [11] came to 1.4 L/kg; in series [30], 1 L/kg; in [31], 1 L/kg. For the same molecule, the results for the Tmax in series [12], in series [27] and in series [34] were 48 min, 18 min and 18 min, respectively. For the same molecule, the solubility thermodynamic was under 3 µg/mL in series [13] and over 1500 µg/mL in series [35]. Besides, the AUC/dose in series [14] is 54 nM·h; in series [15], 225 nM·h; in [28], 55 nM·h. For the same molecule, the half-life in series [16] was 30 min; in series [21], 54 min; in [32], 60 min; in series [1] it was over 120 min. The bioavailability in series [17] turned out to be 5%; in series [19], 29%; in series [20], 16%. For the same molecule, the results for the Cmax/dose in series [22], in series [26] and in series [29] were 148 nM, 19 nM and 53 nM, respectively. Moreover, in [24], the concentration at 0.5 h was 49.1 nM. Moreover, in series [33], the concentration at 5 h was 5.6 nM.
Regarding `C#CC(=O)N(C)CCOc1c(N)ncnc1-c1cc(F)cc(NC(=O)c2ccc(C3CC3)cc2F)c1C`, the remaining at 24 h in [4] amounted to 0.1%. For the same molecule, the half-life in series [1] came out at 96 min.
The molecule `C=CC(=O)NCCOc1c(N)ncnc1-c1cc(F)cc(NC(=O)c2ccc(C3CC3)cc2F)c1C` yielded a half-life in series [1] of over 120 min.
As to `C=CC(=O)N1CCC(Oc2c(N)ncnc2-c2cc(F)cc(NC(=O)c3ccc(C4CC4)cc3)c2C)C1` (stereo not drawn), in series [3], the microsomal CLint was 135 µL/min/mg.
